Laboratory results taken from ChEMBL document CHEMBL3400138, “Synthesis of 3-azabicyclo[3.2.2]nonanes and their antiprotozoal activities” (Bioorg Med Chem Lett, 2015).
Activity calls are given as the source filed them. No cut-off for these calls is given here.

Columns and labels:
[1] = Selectivity index, ratio of CC50 for rat L6 cells to IC50 for Trypanosoma brucei rhodesiense STIB900; assay type: functional
[2] = Selectivity index, ratio of CC50 for rat L6 cells to IC50 for chloroquine and pyrimethamine resistant Plasmodium falciparum K1; assay type: functional
[3] = tested on: Trypanosoma brucei rhodesiense; assay: Antitrypanosomal activity against Trypanosoma brucei rhodesiense STIB900 bloodstream forms after 72 hrs by alamar blue assay; assay type: functional, organism-based; conditions: STIB900, 72 h
L6 = assay: Cytotoxicity against rat L6 cells after 72 hrs by alamar blue assay; assay type: cell-based; conditions: L6, 72 h
Plasmodium falciparum = assay: Antiplasmodial activity against chloroquine and pyrimethamine resistant Plasmodium falciparum K1 infected in human red blood cells assessed as reduction in parasite viability after 48 hrs by [3H]-hypoxanthine incorporation assay; assay type: functional, organism-based
Plasmodium berghei [4] = assay: Antiplasmodial activity against GFP-transfected Plasmodium berghei ANKA infected in NMRI mouse assessed as reduction in parasitemia at 50 mg/kg, ip administered 4, 24, 48 and 72 hrs post infection by FACS analysis; assay type: functional; conditions: route intraperitoneal
Plasmodium berghei [5] = assay: Antiplasmodial activity against GFP-transfected Plasmodium berghei ANKA infected in NMRI mouse assessed as mean survival day at 50 mg/kg, ip administered 4, 24, 48 and 72 hrs post infection (reference value: 4 to 6 days); assay type: functional; conditions: route intraperitoneal
Escherichia coli = assay: Antibacterial activity against Escherichia coli ATCC 25922 at 100 ug after 24 hrs; assay type: functional; conditions: ATCC 25922, 24 h, read-out: DIZ
Proteus mirabilis = assay: Antibacterial activity against Proteus mirabilis ATCC 14153 at 100 ug after 24 hrs; assay type: functional; conditions: ATCC 14153, 24 h, read-out: DIZ
Plasmodium berghei [6] = assay: Growth inhibition of Plasmodium berghei infected in mouse; assay type: functional
Candida parapsilosis = assay: Antifungal activity against Candida parapsilosis ATCC 90018 at 100 ug after 48 hrs; assay type: functional, organism-based
Candida tropicalis = assay: Antifungal activity against Candida tropicalis ATCC 13803 at 100 ug after 48 hrs; assay type: functional, organism-based
Plasmodium berghei [7] = assay: Antiplasmodial activity against GFP-transfected Plasmodium berghei ANKA infected in NMRI mouse assessed as reduction in parasitemia at 20 mg/kg, ip administered 4, 24, 48 and 72 hrs post infection by FACS analysis; assay type: functional; conditions: route intraperitoneal
Enterococcus faecium = assay: Antibacterial activity against Enterococcus faecium ATCC 6057 at 100 ug after 24 hrs; assay type: functional; conditions: ATCC 6057, 24 h, read-out: DIZ
Enterococcus faecalis = assay: Antibacterial activity against Enterococcus faecalis ATCC 14506 at 100 ug after 24 hrs; assay type: functional
Plasmodium berghei [8] = assay: Antiplasmodial activity against GFP-transfected Plasmodium berghei ANKA infected in NMRI mouse assessed as reduction in parasitemia at 200 mg/kg, po administered 24 hrs post infection by FACS analysis; assay type: functional
Leishmania sp. = assay: Antiparasitic activity against Leishmania sp.; assay type: functional, organism-based
Plasmodium berghei [9] = assay: Antiplasmodial activity against GFP-transfected Plasmodium berghei ANKA infected in NMRI mouse assessed as reduction in parasitemia at 100 mg/kg, po administered 24 hrs post infection by FACS analysis; assay type: functional
Trypanosoma = assay: Antiparasitic activity against Trypanosoma sp.; assay type: functional, organism-based
Mus musculus = assay: Toxicity in GFP-transfected Plasmodium berghei ANKA infected NMRI mouse at 200 mg/kg, po administered 24 hrs post infection; assay type: organism-based; set-up: dose 200 mg/kg, route oral; conditions: in vivo
Plasmodium berghei [10] = assay: Antiplasmodial activity against GFP-transfected Plasmodium berghei ANKA infected in NMRI mouse assessed as mean survival day at 100 mg/kg, po administered 24 hrs post infection (reference value: 3 days); assay type: functional
Klebsiella oxytoca = assay: Antibacterial activity against Klebsiella oxytoca ATCC 8724 at 100 ug after 24 hrs; assay type: functional, organism-based
[11] = molecular target: Voltage-gated inwardly rectifying potassium channel KCNH2 (Homo sapiens, UniProt Q12809); assay: Inhibition of human ERG expressed in HEK293 cells assessed as reduction in tail current at membrane potential of +20 mV; assay type: cell-based
Voltage-gated inwardly rectifying potassium channel KCNH2, sequence (Q12809 whole entry): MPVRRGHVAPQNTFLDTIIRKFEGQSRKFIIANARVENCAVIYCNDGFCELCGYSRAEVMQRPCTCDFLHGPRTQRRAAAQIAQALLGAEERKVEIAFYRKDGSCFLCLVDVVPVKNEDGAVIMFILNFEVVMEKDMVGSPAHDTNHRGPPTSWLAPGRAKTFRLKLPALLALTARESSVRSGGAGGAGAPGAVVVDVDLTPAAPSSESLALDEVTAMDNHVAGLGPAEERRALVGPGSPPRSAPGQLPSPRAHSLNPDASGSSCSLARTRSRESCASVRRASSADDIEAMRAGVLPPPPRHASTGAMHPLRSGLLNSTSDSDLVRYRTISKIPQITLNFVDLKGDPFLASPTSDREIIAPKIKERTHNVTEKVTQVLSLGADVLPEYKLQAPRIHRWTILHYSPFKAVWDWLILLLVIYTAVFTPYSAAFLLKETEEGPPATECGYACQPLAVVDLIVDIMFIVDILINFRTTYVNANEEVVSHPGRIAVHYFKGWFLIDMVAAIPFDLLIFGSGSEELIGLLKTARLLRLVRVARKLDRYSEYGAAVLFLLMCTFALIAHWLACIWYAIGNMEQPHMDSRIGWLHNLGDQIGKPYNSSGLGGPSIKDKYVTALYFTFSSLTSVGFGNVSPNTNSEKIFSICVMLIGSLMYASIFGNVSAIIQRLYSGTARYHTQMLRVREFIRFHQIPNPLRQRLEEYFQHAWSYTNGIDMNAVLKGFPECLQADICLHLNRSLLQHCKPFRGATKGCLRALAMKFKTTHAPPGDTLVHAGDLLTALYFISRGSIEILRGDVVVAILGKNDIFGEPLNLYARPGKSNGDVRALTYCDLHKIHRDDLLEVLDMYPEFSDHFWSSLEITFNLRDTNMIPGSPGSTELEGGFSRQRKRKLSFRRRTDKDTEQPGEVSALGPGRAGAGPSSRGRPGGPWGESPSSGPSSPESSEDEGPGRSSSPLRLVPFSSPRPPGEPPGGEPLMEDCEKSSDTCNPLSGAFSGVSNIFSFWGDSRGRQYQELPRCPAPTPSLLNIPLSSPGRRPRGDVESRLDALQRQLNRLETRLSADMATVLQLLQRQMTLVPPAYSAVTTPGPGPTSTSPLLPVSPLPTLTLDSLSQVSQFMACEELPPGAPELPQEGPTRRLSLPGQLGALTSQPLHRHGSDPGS

Candida albicans = assay: Antifungal activity against Candida albicans ATCC 10231 at 100 ug after 48 hrs; assay type: functional, organism-based
Plasmodium berghei [12] = assay: Antiplasmodial activity against GFP-transfected Plasmodium berghei ANKA infected in NMRI mouse assessed as reduction in parasitemia administered intraperitoneally 4, 24, 48 and 72 hrs post infection by FACS analysis; assay type: functional
Raoultella planticola = assay: Antibacterial activity against Raoultella planticola ATCC 15050 at 100 ug after 24 hrs; assay type: functional, organism-based
Plasmodium berghei [13] = assay: Antiplasmodial activity against GFP-transfected Plasmodium berghei ANKA infected in NMRI mouse assessed as mean survival day at 10 mg/kg, ip administered 4, 24, 48 and 72 hrs post infection (reference value: 4 days); assay type: functional; conditions: route intraperitoneal
Plasmodium berghei [14] = assay: Antiplasmodial activity against GFP-transfected Plasmodium berghei ANKA infected in NMRI mouse assessed as mean survival day at 100 mg/kg, po administered 4, 24, 48 and 72 hrs post infection (reference value: 4 days); assay type: functional
[15] = Half life in rat at 10 mg/kg, iv; assay type: ADME, organism-based; set-up: dose 10 mg/kg, route intravenous; conditions: in vivo
Staphylococcus aureus = assay: Antibacterial activity against Staphylococcus aureus ATCC 25923 at 100 ug after 24 hrs; assay type: functional
[16] = tested on: Mycolicibacterium smegmatis; assay: Antimycobacterial activity against Mycobacterium smegmatis ATCC 14468 assessed as inhibition of bacterial growth after 72 hrs by MTT dye based microbroth dilution assay; assay type: functional; conditions: ATCC 14468, 72 h
Plasmodium berghei [17] = assay: Antiplasmodial activity against GFP-transfected Plasmodium berghei ANKA infected in NMRI mouse assessed as mean survival day at 200 mg/kg, po administered 24 hrs post infection (reference value: 3 days); assay type: functional
Plasmodium berghei [18] = assay: Antiplasmodial activity against GFP-transfected Plasmodium berghei ANKA infected in NMRI mouse assessed as reduction in parasitemia at 10 mg/kg, ip administered 4, 24, 48 and 72 hrs post infection by FACS analysis; assay type: functional; conditions: route intraperitoneal
[19] = tested on: Staphylococcus epidermidis; assay: Antibacterial activity against Staphylococcus epidermidis ATCC 12228 at 100 ug after 24 hrs; assay type: functional, organism-based
Plasmodium berghei [20] = assay: Antiplasmodial activity against GFP-transfected Plasmodium berghei ANKA infected in NMRI mouse assessed as mean survival day at 20 mg/kg, ip administered 4, 24, 48 and 72 hrs post infection (reference value: 4 days); assay type: functional; conditions: route intraperitoneal
hERG (KCNH2) [21] = molecular target: T1, hERG (KCNH2) (Homo sapiens, UniProt Q12809); assay: Inhibition of human ERG expressed in HEK293 cells assessed as reduction in tail current at 3 uM and at membrane potential of +20 mV; assay type: cell-based; conditions: HEK293 cells that express hERG
T1 sequence (Q12809 whole entry): as above

Plasmodium berghei [22] = assay: Antiplasmodial activity against orally dosed GFP-transfected Plasmodium berghei ANKA infected in NMRI mouse assessed as reduction in parasitemia by FACS analysis; assay type: functional
Bacillus subtilis = assay: Antibacterial activity against Bacillus subtilis ATCC 6051 at 100 ug after 24 hrs; assay type: functional, organism-based
hERG (KCNH2) [23] = molecular target: T1, hERG (KCNH2); assay: Inhibition of human ERG expressed in HEK293 cells assessed as reduction in tail current at 3 uM and at membrane potential of +0 mV; assay type: cell-based; conditions: HEK293 cells that express hERG
Plasmodium berghei [24] = assay: Antiplasmodial activity against GFP-transfected Plasmodium berghei ANKA infected in NMRI mouse assessed as reduction in parasitemia at 100 mg/kg, po administered 4, 24, 48 and 72 hrs post infection by FACS analysis; assay type: functional

Cl.O=C1CC2(N3CCCCC3)CC(c3ccccc3)C(N1)C(c1ccccc1)C2 (racemic)
Ratio IC50 [1]: 6.4

CN(C)C12CNCC(C(c3ccc(Cl)cc3)C1)C(c1ccc(Cl)cc1)C2.Cl (centres undefined)
Ratio IC50 [2]: 11.63 | IC50 [3]: 0.34 µM | IC50 (L6): 8.96 µM | Ratio IC50 [1]: 26.4 | IC50 (Plasmodium falciparum): 0.77 µM

CN(C)C12CNCC(C(c3ccccc3)C1)C(c1ccccc1)C2.Cl (racemic)
Ratio IC50 [2]: 452.2 | IC50 [3]: 1.58 µM | IC50 (L6): 122 µM | Ratio IC50 [1]: 77.3 | inhibition in vivo at 50 mg/kg (Plasmodium berghei [4]): 0% | MSD (Plasmodium berghei [5]): 4 days | IC50 (Plasmodium falciparum): 0.27 µM

NC[C@H]1O[C@H](O[C@H]2[C@H](O)[C@@H](O[C@H]3O[C@H](CO)[C@@H](O)[C@H](N)[C@H]3O)[C@H](N)C[C@@H]2N)[C@H](O)[C@@H](O)[C@@H]1O [KANAMYCIN]
zone of inhibition at 100 µg/disc (Escherichia coli): 20 mm | zone of inhibition at 100 µg/disc (Proteus mirabilis): 20 mm

Cl.Clc1ccc(C2CC3(N4CCCC4)CNCC2C(c2ccc(Cl)cc2)C3)cc1 (racemic)
IC50 [3]: 0.26 µM | IC50 (L6): 9.11 µM | Ratio IC50 [1]: 35

CN(C)C12CCNC(C(c3ccccc3)C1)C(c1ccccc1)C2.Cl (racemic)
Ratio IC50 [1]: 181 | growth inhibition (GI) (Plasmodium berghei [6]): 35% | inhibition in vivo at 50 mg/kg (Plasmodium berghei [4]): 35.1% | MSD (Plasmodium berghei [5]): 6.3 days

CN(C)C12CCNC(C(c3ccc(Cl)cc3)C1)C(c1ccc(Cl)cc1)C2.Cl (racemic)
Ratio IC50 [1]: 143

Cl.Clc1ccc(C2CC3(N4CCCC4)CCNC2C(c2ccc(Cl)cc2)C3)cc1 (racemic)
Ratio IC50 [1]: 152

NYSTATIN
inhibition zone (IZ) (Candida parapsilosis): 25 mm | inhibition zone (IZ) (Candida tropicalis): 20 mm

Cl.c1ccc(C2CC3(N4CCCC4)CNCC2C(c2ccccc2)C3)cc1 (racemic)
inhibition in vivo at 20 mg/kg (Plasmodium berghei [7]): 60.1% | zone of inhibition at 100 µg/disc (Enterococcus faecium): 10 mm | diameter of the inhibition zone (DIZ) (Enterococcus faecalis): inactive | inhibition in vivo at 200 mg/kg (Plasmodium berghei [8]): 66.1% | diameter of the inhibition zone (DIZ) (Candida parapsilosis): inactive | inhibition (Leishmania sp.): Active | inhibition in vivo at 100 mg/kg (Plasmodium berghei [9]): 70.5% | inhibition (Trypanosoma): Active | Activity (Mus musculus): Toxic | Ratio IC50 [2]: 767.7 | IC50 [3]: 1 µM | zone of inhibition at 100 µg/disc (Escherichia coli): 10 mm | MSD (Plasmodium berghei [10]): 12 days | IC50 (L6): 72.9 µM | diameter of the inhibition zone (DIZ) (Klebsiella oxytoca): inactive | zone of inhibition at 100 µg/disc (Proteus mirabilis): 11 mm | IC50 [11]: 2.63 µM | inhibition (INH) ([11]; human, hek293): Dose-dependent effect | diameter of the inhibition zone (DIZ) (Candida albicans): inactive | inhibition (Plasmodium berghei [12]): Dose-dependent effect | ED50 (Plasmodium berghei [12]; ip): 17 mg/kg | ED90 (Plasmodium berghei [12]; ip): 40 mg/kg | Ratio IC50 [1]: 72.9 | diameter of the inhibition zone (DIZ) (Raoultella planticola): inactive | MSD (Plasmodium berghei [13]): 4 days | MSD (Plasmodium berghei [14]): 18.6 days | half-life [15]: 18 min | diameter of the inhibition zone (DIZ) (Staphylococcus aureus): inactive | MIC [16]: 128 µg/mL | MSD (Plasmodium berghei [17]): 16 days | inhibition in vivo at 10 mg/kg (Plasmodium berghei [18]): 25.1% | diameter of the inhibition zone (DIZ) [19]: inactive | MSD (Plasmodium berghei [20]): 10 days | inhibition at 3 µM (hERG (KCNH2) [21]): 54.8% | inhibition (Plasmodium berghei [22]): Dose-dependent effect | ED50 (Plasmodium berghei [22]; po): 75 mg/kg | diameter of the inhibition zone (DIZ) (Bacillus subtilis): inactive | inhibition in vivo at 50 mg/kg (Plasmodium berghei [4]): 94.8% | inhibition at 3 µM (hERG (KCNH2) [23]): 45.9% | inhibition in vivo at 100 mg/kg (Plasmodium berghei [24]): 97.7% | MSD (Plasmodium berghei [5]): 15 days | diameter of the inhibition zone (DIZ) (Candida tropicalis): inactive | IC50 (Plasmodium falciparum): 0.095 µM

Cl.Clc1ccc(C2CC3(N4CCCCC4)CNCC2C(c2ccc(Cl)cc2)C3)cc1 (racemic)
Ratio IC50 [2]: 21.86 | IC50 [3]: 0.32 µM | IC50 (L6): 8.09 µM | Ratio IC50 [1]: 25.3 | IC50 (Plasmodium falciparum): 0.37 µM

Cl.c1ccc(C2CC3(N4CCOCC4)CCNC2C(c2ccccc2)C3)cc1 (racemic)
Ratio IC50 [2]: 30.22 | IC50 [3]: 9.44 µM | IC50 (L6): > 207 µM | Ratio IC50 [1]: 21.9 | IC50 (Plasmodium falciparum): 6.84 µM
